# In PubChem BioAssay AID1259407 (Chemical Carcinogenesis Research Information System (CCRIS), 2018):
# Active and inactive are the calls of the source. How the calls were made is not given here.
# Tested on: CCRIS mutagenicity, Ames/micronucleus/aberration tests
# Test: CCRIS mutagenicity studies
# [1] = Test System: AMES SALMONELLA TYPHIMURIUM, Strain/Indicator: TA98, Metabolic Activation: NONE, Method: PREINCUBATION
# [2] = Test System: AMES SALMONELLA TYPHIMURIUM, Strain/Indicator: TA100, Metabolic Activation: NONE, Method: PREINCUBATION
# [3] = Test System: AMES SALMONELLA TYPHIMURIUM, Strain/Indicator: TA1535, Metabolic Activation: NONE, Method: PREINCUBATION
# [4] = Test System: AMES SALMONELLA TYPHIMURIUM, Strain/Indicator: TA1537, Metabolic Activation: NONE, Method: PREINCUBATION
# [5] = Test System: AMES SALMONELLA TYPHIMURIUM, Strain/Indicator: TA98, Metabolic Activation: HAMSTER, LIVER, S-9, AROCLOR 1254 (10%), Method: PREINCUBATION
# [6] = Test System: AMES SALMONELLA TYPHIMURIUM, Strain/Indicator: TA98, Metabolic Activation: RAT, LIVER, S-9, AROCLOR 1254 (10%), Method: PREINCUBATION
# [7] = Test System: AMES SALMONELLA TYPHIMURIUM, Strain/Indicator: TA100, Metabolic Activation: HAMSTER, LIVER, S-9, AROCLOR 1254 (10%), Method: PREINCUBATION
# [8] = Test System: AMES SALMONELLA TYPHIMURIUM, Strain/Indicator: TA100, Metabolic Activation: RAT, LIVER, S-9, AROCLOR 1254 (10%), Method: PREINCUBATION
# [9] = Test System: AMES SALMONELLA TYPHIMURIUM, Strain/Indicator: TA1535, Metabolic Activation: HAMSTER, LIVER, S-9, AROCLOR 1254 (10%), Method: PREINCUBATION
# [10] = Test System: AMES SALMONELLA TYPHIMURIUM, Strain/Indicator: TA1535, Metabolic Activation: RAT, LIVER, S-9, AROCLOR 1254 (10%), Method: PREINCUBATION
# [11] = Test System: AMES SALMONELLA TYPHIMURIUM, Strain/Indicator: TA98, Metabolic Activation: NONE, Method: STANDARD PLATE
# [12] = Test System: AMES SALMONELLA TYPHIMURIUM, Strain/Indicator: TA100, Metabolic Activation: NONE, Method: STANDARD PLATE
# [13] = Test System: AMES SALMONELLA TYPHIMURIUM, Strain/Indicator: TA100, Metabolic Activation: RAT, LIVER, S-9, AROCLOR 1254, Method: STANDARD PLATE
compound,measurement,setting,value
Cc1cccc(C)c1NC(=O)CN1CCCC1=O,mutagenic call,[1],inactive; negative
same,mutagenic call,"Test System: AMES SALMONELLA TYPHIMURIUM, Strain/Indicator: TA98, Metabolic Activation: RAT, LIVER, S-9, SODIUM PHENOBARBITAL AND 5,6-BENZOFLAVONE, Method: PREINCUBATION",inactive; negative
same,mutagenic call,[2],inactive; negative
same,mutagenic call,"Test System: AMES SALMONELLA TYPHIMURIUM, Strain/Indicator: TA100, Metabolic Activation: RAT, LIVER, S-9, SODIUM PHENOBARBITAL AND 5,6-BENZOFLAVONE, Method: PREINCUBATION",inactive; negative
same,mutagenic call,[3],inactive; negative
same,mutagenic call,"Test System: AMES SALMONELLA TYPHIMURIUM, Strain/Indicator: TA1535, Metabolic Activation: RAT, LIVER, S-9, SODIUM PHENOBARBITAL AND 5,6-BENZOFLAVONE, Method: PREINCUBATION",inactive; negative
same,mutagenic call,[4],inactive; negative
same,mutagenic call,"Test System: AMES SALMONELLA TYPHIMURIUM, Strain/Indicator: TA1537, Metabolic Activation: RAT, LIVER, S-9, SODIUM PHENOBARBITAL AND 5,6-BENZOFLAVONE, Method: PREINCUBATION",inactive; negative
same,mutagenic call,"Test System: E. COLI, Strain/Indicator: WP2 UVRA, Metabolic Activation: NONE, Method: PREINCUBATION",inactive; negative
same,mutagenic call,"Test System: E. COLI, Strain/Indicator: WP2 UVRA, Metabolic Activation: RAT, LIVER, S-9, SODIUM PHENOBARBITAL AND 5,6-BENZOFLAVONE, Method: PREINCUBATION",inactive; negative
NCCc1c[nH]c2ccc(O)cc12,mutagenic call,[2],inactive; negative
CCN(CC)c1ccc(C(=C2C=CC(=[N+](CC)CC)C=C2)c2ccccc2)cc1,mutagenic call,"Test System: AMES SALMONELLA TYPHIMURIUM, Strain/Indicator: TA100, Method: PREINCUBATION",active; positive
c1ccc(N=NNc2ccccc2)cc1,mutagenic call,"End Point: IN VIVO MICRONUCLEUS, Test System: BONE MARROW, Species: MOUSE, Strain/Sex: B6C3F1/MALE, Route: GAVAGE",active; positive
same,mutagenic call,[5],active; positive
same,mutagenic call,[1],inactive; negative
same,mutagenic call,[6],active; positive
same,mutagenic call,[7],active; positive
same,mutagenic call,[2],inactive; negative
same,mutagenic call,[8],active; positive
same,mutagenic call,[9],inactive; negative
same,mutagenic call,[3],inactive; negative
same,mutagenic call,[10],inactive; negative
same,mutagenic call,"Test System: AMES SALMONELLA TYPHIMURIUM, Strain/Indicator: TA1537, Metabolic Activation: HAMSTER, LIVER, S-9, AROCLOR 1254 (10%), Method: PREINCUBATION",active; positive
same,mutagenic call,[4],inactive; negative
same,mutagenic call,"Test System: AMES SALMONELLA TYPHIMURIUM, Strain/Indicator: TA1537, Metabolic Activation: RAT, LIVER, S-9, AROCLOR 1254 (10%), Method: PREINCUBATION",active; positive
Nc1ccc([N+](=O)[O-])c(O)c1,mutagenic call,[11],inactive; negative
same,mutagenic call,[12],inactive; negative
same,mutagenic call,[13],inactive; negative
same,mutagenic call,"Test System: AMES SALMONELLA TYPHIMURIUM, Strain/Indicator: TA1535, Metabolic Activation: NONE, Method: STANDARD PLATE",inactive; negative
same,mutagenic call,"Test System: AMES SALMONELLA TYPHIMURIUM, Strain/Indicator: TA1535, Metabolic Activation: RAT, LIVER, S-9, AROCLOR 1254, Method: STANDARD PLATE",inactive; negative
same,mutagenic call,"Test System: AMES SALMONELLA TYPHIMURIUM, Strain/Indicator: TA1537, Metabolic Activation: NONE, Method: STANDARD PLATE",inactive; negative
same,mutagenic call,"Test System: AMES SALMONELLA TYPHIMURIUM, Strain/Indicator: TA1537, Metabolic Activation: RAT, LIVER, S-9, AROCLOR 1254, Method: STANDARD PLATE",inactive; negative
same,mutagenic call,"Test System: AMES SALMONELLA TYPHIMURIUM, Strain/Indicator: TA1538, Metabolic Activation: NONE, Method: STANDARD PLATE",inactive; negative
CC(=O)OCc1ccccc1N=Nc1ccc(N(C)C)cc1,mutagenic call,"Test System: AMES SALMONELLA TYPHIMURIUM, Strain/Indicator: TA98, Metabolic Activation: RAT, LIVER, S-9, POLYCHLORINATED BIPHENYLS, Method: PREINCUBATION",active; positive
same,mutagenic call,"Test System: AMES SALMONELLA TYPHIMURIUM, Strain/Indicator: TA100, Metabolic Activation: RAT, LIVER, S-9, POLYCHLORINATED BIPHENYLS, Method: PREINCUBATION",active; positive
CCS(=O)CCSP(=O)(OC)OC (centres undefined),mutagenic call,"Test System: AMES SALMONELLA TYPHIMURIUM, Strain/Indicator: TA97, Metabolic Activation: HAMSTER, LIVER, S-9, AROCLOR 1254 (10%), Method: PREINCUBATION",inactive; negative
same,mutagenic call,"Test System: AMES SALMONELLA TYPHIMURIUM, Strain/Indicator: TA97, Metabolic Activation: NONE, Method: PREINCUBATION",inactive; negative
same,mutagenic call,"Test System: AMES SALMONELLA TYPHIMURIUM, Strain/Indicator: TA97, Metabolic Activation: RAT, LIVER, S-9, AROCLOR 1254 (10%), Method: PREINCUBATION",inactive; negative
same,mutagenic call,[5],inactive; negative
same,mutagenic call,[1],inactive; negative
same,mutagenic call,[6],inactive; negative
same,mutagenic call,[7],active; positive
same,mutagenic call,[2],inactive; negative
same,mutagenic call,[8],active; positive
same,mutagenic call,[9],active; positive
same,mutagenic call,[3],active; positive
same,mutagenic call,[10],active; positive
ClC1=C(Cl)[C@]2(Cl)[C@@H]3[C@@H]4C[C@@H]([C@H]5O[C@@H]45)[C@@H]3[C@@]1(Cl)C2(Cl)Cl,mutagenic call,"End Point: IN VITRO CHROMOSOMAL ABERRATIONS, Test System: CHINESE HAMSTER OVARY CELLS, Metabolic Activation: NONE",inactive; negative
same,mutagenic call,"End Point: IN VITRO CHROMOSOMAL ABERRATIONS, Test System: CHINESE HAMSTER OVARY CELLS, Metabolic Activation: RAT, LIVER, S-9, AROCLOR 1254",inactive; negative; precipitation occurred at all doses
same,mutagenic call,"Test System: AMES SALMONELLA TYPHIMURIUM, Strain/Indicator: TA97, Metabolic Activation: NONE, Method: STANDARD PLATE",inactive; negative
same,mutagenic call,"Test System: AMES SALMONELLA TYPHIMURIUM, Strain/Indicator: TA97, Metabolic Activation: RAT, LIVER, S-9, AROCLOR 1254, Method: STANDARD PLATE",inactive; negative
same,mutagenic call,[11],inactive; negative
same,mutagenic call,"Test System: AMES SALMONELLA TYPHIMURIUM, Strain/Indicator: TA98, Metabolic Activation: RAT, LIVER, S-9, AROCLOR 1254, Method: STANDARD PLATE",inactive; negative
same,mutagenic call,[12],inactive; negative
same,mutagenic call,[13],inactive; negative
same,mutagenic call,"Test System: AMES SALMONELLA TYPHIMURIUM, Strain/Indicator: TA102, Metabolic Activation: NONE, Method: STANDARD PLATE",inactive; negative
same,mutagenic call,"Test System: AMES SALMONELLA TYPHIMURIUM, Strain/Indicator: TA102, Metabolic Activation: RAT, LIVER, S-9, AROCLOR 1254, Method: STANDARD PLATE",inactive; negative
same,mutagenic call,"Test System: CHINESE HAMSTER V-79, Strain/Indicator: V-79/OUABAIN, Metabolic Activation: NONE, Method: STANDARD PLATE",active; positive
same,mutagenic call,"Test System: MOUSE LYMPHOMA, Strain/Indicator: L5178Y (TK+/TK-), Metabolic Activation: NONE, Method: SUSPENSION/PLATE",active; positive
